US9340577B2, “HLA binding motifs and peptides and their uses” (priority 1992, dated 2016)
Like-named read-outs stand apart in the source and are kept apart here. No end group written: not given here.

How the values were obtained:
DR4w4 (DRB1*0401) = DR4w4 (DRB1*0401) (Homo sapiens, UniProt P01903+P01911, A100K/A169T/F76Y/I96L/K127E/L162R/M171V/N62H/P40V/Q125Y/R42H/S133A/S149N/S66Y/V115G/V209L/W38E); assay: biochemical; type: binding
DRB1*1501 = DRB1*1501 (Homo sapiens, UniProt P01903+P01911); assay: biochemical; type: binding
DRB5*0101 = DRB5*0101 (Homo sapiens, UniProt P01903+Q30154); assay: biochemical
DRB1*0802 = DRB1*0802 (Homo sapiens, UniProt P01903+P01911, A100R/A103L/A169T/F76Y/H45Y/I96F/K41T/L162R/M171V/P40S/Q125H/Q178H/Q39Y/Q99D/R218S/R42G/S66Y/V115G/W38E); assay: biochemical; type: binding
DRB1*1302 = DRB1*1302 (Homo sapiens, UniProt P01903+P01911, A100E/A169T/K41T/L162R/M171V/P40S/Q125H/Q178H/Q39Y/Q99D/R42S/S66N/T262R/V115G/W38E/Y61H); assay: biochemical; type: binding
DRB1*1101 = DRB1*1101 (Homo sapiens, UniProt P01903+P01911, A100R/A169T/A87E/I96F/K41T/L162R/M171V/P40S/Q125H/Q178H/Q39Y/Q99D/R42S/S66Y/T262R/V115G/W38E); assay: biochemical
HLA-A*0201 (HLA-A2.1) = HLA-A*0201 (HLA-A2.1) (Homo sapiens, UniProt P04439, D140Y/D185E/D98H/E176V/E277Q/G131W/G231S/I119V/I121R/I166T/I218V/L300P/L318F/N151K/N90K/P208A/P217A/Q86G/Q94H/R138H/R169H/T345S); assay: biochemical; type: binding
A2.1 HLA molecules = A2.1 HLA molecules (Homo sapiens, UniProt P04439, D140Y/D185E/D98H/E176V/E277Q/G131W/G231S/I119V/I121R/I166T/I218V/L300P/L318F/N151K/N90K/P208A/P217A/Q86G/Q94H/R138H/R169H/T345S); type: binding; parameters: A*0201 / A2.1 Binding / A2 Bind. / A2 / A2.1 (binding capacity): scale not given here
HLA-A3.2 (A*0301) = HLA-A3.2 (A*0301) (Homo sapiens, UniProt P04439); assay: biochemical; type: binding; conditions: Table 164, MAGE peptides; binding value to HLA-A3.2, no unit given
HLA-A11 (A*1101) = HLA-A11 (A*1101) (Homo sapiens, UniProt P04439, A114D/D185E/E176A/F33Y/L180Q/S129P/T187R); assay: biochemical; type: binding; parameters: A11: unit not given here
DRB1*0901 = DRB1*0901 (Homo sapiens, UniProt P01903+P01911, A100R/A103E/D57H/D86V/F55Y/F60I/F76Y/I96F/K127E/L162R/M171V/P40D/Q125H/Q99R/R33Q/R42F/S133A/S66N/T210M/V115G/W38K/Y107V/Y59G/Y89S); assay: biochemical; type: binding
DR7 (DRB1*0701) = DR7 (DRB1*0701) (Homo sapiens, UniProt P01903+P01911, A100R/A102G/A103Q/D57E/D86V/E43K/F76Y/K127E/L162R/M171V/P40G/Q125H/Q99D/R33Q/R42Y/R54Q/S133A/S66F/T210M/V115G/Y107V/Y59L/Y89S); assay: biochemical; type: binding

DRB1*1101, sequence (P01903 26-254 limits assumed, other chains not shown): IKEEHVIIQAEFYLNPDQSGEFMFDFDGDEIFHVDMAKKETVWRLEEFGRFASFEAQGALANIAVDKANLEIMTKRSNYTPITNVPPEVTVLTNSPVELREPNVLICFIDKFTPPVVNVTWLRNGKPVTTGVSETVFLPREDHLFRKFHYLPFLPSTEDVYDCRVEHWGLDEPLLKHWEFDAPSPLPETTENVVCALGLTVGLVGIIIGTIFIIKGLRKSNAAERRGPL
DRB1*1302, sequence (P01903 26-254 limits assumed, other chains not shown): as above

“730.15 (AAKAAAAAAAAA; also: non-natural residue (10)) [Peptide 730.15]” gave an IC50 (DR4w4 (DRB1*0401); read-out: DRB1*0401) of over 0.889 µM.
With “787.35 (AAIGFFFFKKGIA; also: non-natural residue (43)) [Peptide 787.35]” the IC50 (DR4w4 (DRB1*0401); read-out: DRB1*0401) was 0.258 µM.
“787.39 (AAIGGIFIFKKDA; also: non-natural residue (43)) [Peptide 787.39]” showed an IC50 (DR4w4 (DRB1*0401); read-out: DRB1*0401) of 0.8 µM.
Work on “839.03 (AAAATKAAAA; also: non-natural residues (14), (35)) [Peptide 839.03]” yielded an IC50 (DR4w4 (DRB1*0401); read-out: DRB1*0401) of over 0.5 µM.
Compound CC[C@H](C)[C@H](NC(=O)CNC(=O)[C@H](CCCNC(=N)N)NC(=O)[C@H](CCCNC(=N)N)NC(=O)[C@H](Cc1ccc(O)cc1)NC(=O)[C@H](C)NC(=O)[C@H](Cc1ccc(O)cc1)NC(=O)[C@@H](N)CCC(=O)O)C(=O)N[C@@H](C)C(=O)N[C@@H](CCC(=O)O)C(=O)N[C@@H](C)C(=O)N[C@H](C(=O)NCC(=O)N[C@@H](CC(C)C)C(=O)N1CCC[C@H]1C(=O)O)C(C)C [Peptide 68.0100] has an IC50 (DRB1*1501) of over 20 µM.
Work on CC[C@H](C)[C@H](NC(=O)[C@H](CCC(N)=O)NC(=O)[C@@H](NC(=O)[C@H](CO)NC(=O)[C@H](CC(=O)O)NC(=O)[C@@H]1CCCN1C(=O)[C@@H](NC(=O)[C@H](C)NC(=O)[C@@H](NC(=O)[C@@H](NC(=O)[C@H](CC(N)=O)NC(=O)[C@H](CC(C)C)NC(=O)[C@@H](N)Cc1ccccc1)[C@@H](C)O)C(C)C)[C@@H](C)CC)C(C)C)C(=O)N[C@@H](CC(C)C)C(=O)N[C@H](C(=O)O)C(C)C [Peptide 1601.20] yielded an IC50 (DRB5*0101; Binding affinity DRB5 *0101) of over 20 µM, an IC50 (DRB1*0802) of over 20 µM and an IC50 (DRB1*1302) of 0.09 µM. For the same compound, the IC50 (DRB1*1101; Binding affinity DRB1 *1101) was over 20 µM.
CC[C@H](C)[C@H](NC(=O)[C@H](CC(N)=O)NC(=O)[C@H](C)NC(=O)[C@H](CC(=O)O)NC(=O)CNC(=O)[C@H](CCCCN)NC(=O)[C@H](CC(C)C)NC(=O)[C@H](Cc1c[nH]cn1)NC(=O)[C@@H](NC(=O)[C@@H](NC(=O)[C@@H]1CCCN1C(=O)[C@@H](NC(=O)[C@@H](N)[C@@H](C)O)[C@@H](C)O)[C@@H](C)CC)[C@@H](C)CC)C(=O)N[C@@H](CC(C)C)C(=O)N[C@@H](CCCCN)C(=O)O [Peptide 1601.25] gave an IC50 (DRB5*0101; Binding affinity DRB5 *0101) of over 20 µM.
AKSTWYGKPTGAGPKDNGGA [Peptide 620.03] gave an IC50 (DRB5*0101; DRB5*0101) of 10 µM.
ALAETSYVKVL was tested, and the “binding to HLA-A2.1 (column 3; no allele head shown for these rows)” value (HLA-A*0201 (HLA-A2.1)) was 0.012 and the “A2 Bind.” value (A2.1 HLA molecules) was 0.0120.
In the case of ALGLVCVQA, the A2.1 (HLA-A*0201 (HLA-A2.1)) is reported as 0.015, the A3.2 (HLA-A3.2 (A*0301)) is reported as under 0.0002 and the A11 (HLA-A11 (A*1101)) is reported as under 0.0002. For the same compound, the “A2 Bind.” value (A2.1 HLA molecules) was 0.0150 and the “A2.1 relative binding (ratio of binding of test peptide relative to standard peptide)” value (A2.1 HLA molecules) was 0.015.
For AMGLVCVQV, the “binding to HLA-A2.1 (column 3; no allele head shown for these rows)” value (HLA-A*0201 (HLA-A2.1)) was 0.012 and the “A2 Bind.” value (A2.1 HLA molecules) was 0.0120.
Work on Ac-AAAKAAAAAAFAA [Peptide 730.09] yielded an IC50 (DR4w4 (DRB1*0401)) of 0.421 µM.
Ac-AAAKAAAAAAYAA [Peptide 702.08] gave an IC50 (DR4w4 (DRB1*0401)) of 0.348 µM.
For Ac-NPDAENWNSQFEILEDAA [Peptide 725.01], the IC50 (DRB1*0802) was over 25 µM.
For Ac-NPTKHKWEAAHVAEQLAA [Peptide 724.01], the IC50 (DRB1*0802) was 25 µM.
With CYSLYGTTLEQQYNK [Peptide 85.0004] the IC50 (DRB1*0901) was 26 µM.
FVNQHLCGSHLVEAL [Peptide 9000.0047] showed an IC50 (DR7 (DRB1*0701)) of 6.79 µM.
For GLSYDGLLG, the “binding to HLA-A2.1 (column 3; no allele head shown for these rows)” value (HLA-A*0201 (HLA-A2.1)) was 0 and the “A2.1 relative binding (ratio of binding of test peptide relative to standard peptide)” value (A2.1 HLA molecules) was 0.
With GTLEEVPTA the “binding to HLA-A2.1 (column 3; no allele head shown for these rows)” value (HLA-A*0201 (HLA-A2.1)) was 0.013 and the “A2 Bind.” value (A2.1 HLA molecules) was 0.0130.
GVILYSDPADYFAPG [Peptide 68.0170] gave an IC50 (DRB1*0802) of over 20 µM and an IC50 (DRB1*1101; Binding affinity DRB1 *1101) of over 20 µM.
HLYIFATCLGL was tested, and the “binding to HLA-A2.1 (column 3; no allele head shown for these rows)” value (HLA-A*0201 (HLA-A2.1)) was 0.041 and the “A2 Bind.” value (A2.1 HLA molecules) was 0.0410.
IIHLKGDKNSLKCLR [90,0218] showed an IC50 (DRB1*0901) of over 20 µM, an IC50 (DRB1*0802) of 5.03 µM and an IC50 (DR7 (DRB1*0701)) of over 20 µM. The IC50 (DRB1*1101; […]) was over 20 µM.
With IMPKAGLLIIV the “binding to HLA-A2.1 (column 3; no allele head shown for these rows)” value (HLA-A*0201 (HLA-A2.1)) was 0.013 and the “A2 Bind.” value (A2.1 HLA molecules) was 0.0130.
KMADLVGFLV was tested, and the “binding to HLA-A2.1 (column 3; no allele head shown for these rows)” value (HLA-A*0201 (HLA-A2.1)) was 1.5 and the “A2 Bind.” value (A2.1 HLA molecules) was 1.5000.
With KMVELVHFLLL the “binding to HLA-A2.1 (column 3; no allele head shown for these rows)” value (HLA-A*0201 (HLA-A2.1)) was 0.67 and the “A2 Bind.” value (A2.1 HLA molecules) was 0.6700.
With KVADLVGFLLL the “binding to HLA-A2.1 (column 3; no allele head shown for these rows)” value (HLA-A*0201 (HLA-A2.1)) was 0.020 and the “A2 Bind.” value (A2.1 HLA molecules) was 0.0200.
LHLLSNDMCARAYSE [Peptide 68.0140] was tested, and the IC50 (DRB5*0101; Binding affinity DRB5 *0101) was over 20 µM, the IC50 (DRB1*0901) was over 20 µM and the IC50 (DRB1*0802) was over 20 µM. For the same compound, the IC50 (DR7 (DRB1*0701)) was over 20 µM, the IC50 (DRB1*1501) was over 20 µM and the IC50 (DRB1*1101; Binding affinity DRB1 *1101) was over 20 µM.
In the case of LLGDNQIMP, the “binding to HLA-A2.1 (column 3; no allele head shown for these rows)” value (HLA-A*0201 (HLA-A2.1)) is reported as 0.0001 and the “A2.1 relative binding (ratio of binding of test peptide relative to standard peptide)” value (A2.1 HLA molecules) is reported as 0.0001.
LLGDNQIMV was tested, and the “binding to HLA-A2.1 (column 3; no allele head shown for these rows)” value (HLA-A*0201 (HLA-A2.1)) was 0.043 and the “A2 Bind.” value (A2.1 HLA molecules) was 0.0430.
In the case of LMLGTLEEV, the “binding to HLA-A2.1 (column 3; no allele head shown for these rows)” value (HLA-A*0201 (HLA-A2.1)) is reported as 0.13 and the “A2 Bind.” value (A2.1 HLA molecules) is reported as 0.1300.
For LMVTVYYGV, the IC50 (HLA-A*0201 (HLA-A2.1)) was 0.0033 µM and the A2 (A2.1 HLA molecules) was 0.4400.
With QLVFGIELMEV the “binding to HLA-A2.1 (column 3; no allele head shown for these rows)” value (HLA-A*0201 (HLA-A2.1)) was 0.34 and the “A2 Bind.” value (A2.1 HLA molecules) was 0.3400.
With QMMPKTGFLV the “binding to HLA-A2.1 (column 3; no allele head shown for these rows)” value (HLA-A*0201 (HLA-A2.1)) was 0.050 and the “A2 Bind.” value (A2.1 HLA molecules) was 0.0500.
SEVYDFAFADLTVVY [Peptide 85.0024] gave an IC50 (DRB1*1302) of over 20 µM and an IC50 (DRB1*1101; Binding affinity DRB1 *1101) of over 20 µM.
